B1: Spacer: full-length pRb2/p130 spacer domain, amino acids 616-828 (SEQ ID NO:20) (protein, listed as Homo sapiens)
chain: VPTCEEVMPPQNLERADEICIAGSPLTPRRVTEVRADTGGLGRSITSPTTLYDRYSSPPASTTRRRLFVENDSPSDGGTPGRMPPQPLVNAVPVQNVSGETVSVTPVPGQTLVTMATATVTANNGQTVTIPVQGIANENGGITFFPVQVNVGGQAQAVTGSIQPLSAQALAGSLSSQQVTGTTLQVPGQVAIQQISPGGQQQKQGQSVTSSSN

How the values were obtained:
[1] = test system: endogenous cdk2; assay: endogenous cdk2 kinase activity after transient transfection of NIH/3T3 cells; assay type: cell-based; conditions: NIH/3T3 transfected with pEF6/V5 constructs; 48 h after transfection
Experimental: Kinase assays: Cell lysates from NIH/3T3 were prepared by resuspending pelleted cells in 500 μl of lysis buffer (50 mM Tris, 5 mM EDTA, 250 mM NaCl, 50 mM NaF, 0.1% Triton, 0.1 mM Na3VO4, plus protease inhibitors). An equal amount of protein for each fraction (100 μg) was immunoprecipitated with a polyclonal anti-cdk2 antibody (De Luca et al., 1997, J Biol Chem, 272, 20971-4). The complexes were pulled down with protein A-Sepharose and washed three times with lysis buffer and twice with lysis buffer containing 400 mM NaCl. The complexes were equilibrated in kinase assay buffer (20 mM HEPES pH 7.4, 10 mM MgAc, […], 1 mM DTT). In order to detect the in vitro inhibition of cdk2 activity, each sample was incubated with an equal amount (0.1 μg) of each pGEX-2T fusion protein, in a final volume of 20 μl of kinase buffer, using 5 μCi/sample of γ-ATP (Amersham Biosciences, Piscataway, N.J.) and 2 μg of Histone H1 for 30 minutes at 30° C. Kinase assays were repeated at least three times, giving an inter assay standard deviation within 10% after normalization for protein amount. […]
In FIG. 3a, asynchronously growing NIH/3T3 cells were transfected with pEF6/V5 vector, pEF6/V5-Spa310 or pEF6/V5-spacer. […] Phosphorylation of histone H1 was monitored by autoradiography. […]

[2] = test system: NIH/3T3 cells; assay: colony formation assay; assay type: cell-based; conditions: NIH/3T3 transfected with 5 μg pEF6/V5 construct; blasticidin S selection; colonies counted after eight days
Experimental: Colony formation assay: The effects of the pRb2/p130 spacer domain and 39 aa small peptide overexpression on cellular growth was examined by colony formation assays. Exponentially growing NIH/3T3 cells were seeded in 100-mm dishes at a density of 5×10^5 cells per 100 mm dish the day before transfection. Cells were transfected with 5 μg of pEF6/V5-spacer, pEF6/V5-Spa310 or the control vector pEF6/V5 carrying the brasticidin S-resistant gene (bsr) as a selectable marker gene. For selection, blasticidin S hydrochloride (Funakoshi, Tokyo, Japan) was added to the culture medium 48 h after transfection, at a final concentration of 10 μg/mL. After 6 days, 1×10^3 of blasticidin S-resistant cells in each well were plated in triplicate in 60-mm dishes, in order to evaluate their colony-forming ability. Cells were then incubated at 37° C. for eight days in a selecting medium containing blasticidin S hydrochloride at a final concentration of 10 μg/mL. Colonies, defined as groups of a minimum of 50 cells, were counted after staining with 2% methylene blue in 95% ethanol.
As presented in FIGS. 4a and 4b, the spacer region caused a decrease on the ability of the cells to form colonies of about 50% and the Spa310 of about 60%. […] After six days, an equal number of resistant cells were plated in 60-mm dishes and colony-forming ability was evaluated after eight days of continuous selection. […]

Molecule | inhibition of cdk2-dependent histone phosphorylation (endogenous cdk2) [1] | decrease on the ability of the cells to form colonies [2]
Spa310: pRb2/p130 amino acids 641-679 (39 amino acids long), SEQ ID NO:3; LTPRRVTEVRADTGGLGRSITSPTTLYDRYSSPPASTTR (listed as Homo sapiens) | significant inhibition | about 60%
B1 | significant inhibition | about 50%
